Results: patent US10494338B2, “Prostaglandin derivative” (AGC INC., priority 2016, dated 2019)

Experiments:
rat platelet aggregation = test: Inhibitory action on rat platelet aggregation in vitro (ADP-induced, platelet-rich plasma); format: cell-based; conditions: SD rat PRP, ADP 2 μmol/L; relative activity from IC50, activity of IC50 value of PGE1 = 100
Protocol: Experimental Example 2: Evaluation of Inhibitory Action on Rat Platelet Aggregation In Vitro (1) Preparation of Rat Platelet-Rich Plasma In the same manner as in the above-mentioned Experimental Example 1(1), blood samples were collected from the abdominal artery of 8- to 9-week-old male SD rats. PRP was diluted with PPP and the number of platelet was adjusted to 63.2×10^4/μL. (2) Measurement of Platelet Aggregation Ability In the same manner as in the above-mentioned Experimental Example 1(2) except that the final concentration of ADP was 2 μmol/L, the compound of the present invention, prostaglandin E1 (PGE1:positive control substance) or vehicle control was added as a test substance, and the maximum response of aggregation was measured. (3) Evaluation of Platelet Aggregation Inhibitory Action In the same manner as in the above-mentioned Experimental Example 1(3), IC50 values were determined from the aggregation inhibition ratio of the test substance, and the relative activity (%) of each test substance was calculated by defining the activity of IC50 value of PGE1 as 100.

[1] = system: human platelet aggregation; test: Human platelet aggregation inhibitory action in vitro (ADP-induced, platelet-rich plasma); format: cell-based; conditions: human PRP, ADP 3 μmol/L; relative activity from IC50, activity of IC50 value of limaprost = 100
Protocol: Experimental Example 1: Evaluation of Human Platelet Aggregation Inhibitory Action In Vitro
(1) Preparation of Human Platelet-Rich Plasma
Using 3.8 w/v % sodium citrate as an anticoagulant, blood samples were collected from human brachial vein at a ratio of sodium citrate solution:blood (volume ratio)=1:9, and an upper layer of platelet-rich plasma (PRP) was collected by centrifugation (120×g, 10 min). Platelet poor plasma (PPP) was prepared from PRP-free blood by centrifugation (1700×g, 10 min). The number of platelets in PRP was measured and adjusted to 25×10^4/μL by diluting with PPP.
(2) Measurement of Platelet Aggregation Ability
The platelet aggregation ability was measured by a platelet aggregometer (PRP313 M, IMI Co., Ltd.) according to the method of Born (Nature, 1962, vol. 194, pp. 927-929). PRP (190 μL) was placed in a glass cuvette and mounted on the platelet aggregometer. Then, 5 μL of the compound of the present invention, limaprost (positive control substance) or vehicle control (0.25 vol % dimethyl sulfoxide [DMSO]) was added as a test substance, and the mixture was incubated at 37° C. for 10 min. ADP (LMS Co., Ltd.) (5 μL) as a platelet aggregation agent was added at 3 μmol/L in a final concentration to cause aggregation, and the maximum response of the aggregation was measured.
(3) Evaluation of Inhibitory Action on Platelet Aggregation
The aggregation inhibition ratio of a test substance was determined by defining the maximum aggregation ratio of control as 100%, and IC50 value was determined by using “Dx calculation (linear fitting): non-logit transformation” of SAS System Version 9.1.3 (Stat Preclinica Client Ver. 1.1 SAS Institute Japan, Ltd.). Furthermore, the relative activity (%) of each test substance was calculated by defining the activity of IC50 value of limaprost as 100.

[2] = system: rat cauda equine blood flow; test: Increasing effect on rat cauda equine blood flow (intravenous infusion, laser Doppler); format: in vivo; conditions: Wistar rat, tail vein infusion 10 min; relative activity from ED20 (dose increasing cauda equine blood flow by 20%), limaprost = 100
Protocol: Experimental Example 4: Evaluation of Increasing Effect on rat Cauda Equine Blood Flow
(1) Administration of Test Substance
The compound of the present invention or limaprost (positive control substance) as a test substance was injected at 0.263, 0.789 and 2.63 nmol/kg in principle to Slc:Wistar male rats (body weight: about 200-250 g) from the tail vein at a flow rate of 0.2 mL/min for 10 min with an infusion pump (model 11, Harvard Apparatus). A vehicle (1 vol % DMSO-physiological saline) was similarly injected to the control group (5-6 […] in each group).
(2) Measurement of Cauda Equine Blood Flow
The rats were fixed in a prone position under halothane anesthesia and kept warm by a heater (Nippon Medical & Chemical Instruments Co., Ltd.). The lower back of the rats was shaved, dissected to expose the spine, the vertebral arch of the fifth lumbar vertebra was excised and cauda equina was exposed. The cauda equine blood flow was measured by a laser Doppler blood flow meter (TBF-LN1, Unique Medical Co., Ltd.) via a non-contact type probe (LP-NC special type, Unique Medical Co., Ltd.) fixed perpendicularly to a position of the exposed cauda equina upper by about 1 mm from before administration of each test substance until 60 min after the administration. The open wound was filled with liquid paraffin to prevent drying of the exposed cauda equina.
The obtained data was taken into a personal computer via PowerLab8/30 (registered trade mark, ML870, ADInstruments) every 1/400 second, and analyzed using LabChart (registered trade mark, ADInstruments). The analysis time points were before administration (administration 0 min), and 3, 5, 8, 10, 13, 15, 18, 20, 30, 40, 50 and 60 min after administration, or before administration (administration 0 min), and 3, 5, 10, 15, 20, 30, 40, 50 and 60 min after administration. The mean value for 10 seconds at each time point was taken as the measurement value, and the change rate (%) relative to the value before administration was obtained by the following equation. The rate of change (%)=(measurement value at each time point after administration−measurement value before administration)/measurement value before administration×100
Furthermore, difference in the rate of change (%) relative to the control group at each time point [Δ change rate (%)] was calculated by the following equation, and the maximum value of the Δ change rate was taken as the maximum change rate. Δchange rate (%)=change rate of each individual at each time point−mean of change rate of control group
From the maximum change rate at each dose of the test substance, the dose at which the cauda equine blood flow increases by 20% (ED20 value) was determined by linear regression equation, and the relative activity (%) of each test substance was calculated based on the activity of ED20 value of limaprost as 100.

[3] = system: guinea pig platelet aggregation; test: Persistent inhibitory action on guinea pig platelet aggregation ex vivo after single oral dose; format: in vivo; conditions: for AUC: 1-inhibition 0 hr / AUC: 6-inhibition 0 hr: AUC of maximum aggregation inhibition ratio (%) vs time (hr), oral IC50 dose; for AUC: 1-inhibition 0 hr: from 1 hr after administration to inhibition 0 hr; for AUC: 6-inhibition 0 hr: from 6 hr after administration to inhibition 0 hr; for Inhibition 0 hr: assumed time at which maximum aggregation inhibition ratio became 0%, single oral dose at IC50 dose; for Inhibition 0 hr / single oral dose showing the IC50 value: guinea pig; for single oral dose showing the IC50 value: blood collected 4 hr later, ADP 0.5 μmol/L; for AUC: 1-inhibition 0 hr (% relative to limaprost) / AUC: 6-inhibition 0 hr (% relative to limaprost): value in brackets, limaprost = 100
Protocol: Experimental Example 3: Evaluation of Persistent Inhibitory Action on Guinea Pig Platelet Aggregation Ex Vivo
(1) Measurement of IC50 Value
As a test substance, a single oral dose of the compound of the present invention (3 doses of 79, 132 and 263 nmol/kg), limaprost (positive control substance: 3 doses of 79, 263 and 789 nmol/kg) or vehicle control (water for injection containing 0.26 vol % DMSO) was administered at 10 mL/kg to 4- to 10-week-old male Hartley guinea pigs. Blood samples were collected from the abdominal artery 4 hr later, platelet aggregation ability was measured, and the IC50 value was calculated from the aggregation inhibitory activity (aggregation was induced by 0.5 μmol/L ADP) in the same manner as in the above-mentioned Experimental Example 1(3).
(2) Administration of Test Substance and Preparation of Platelet-Rich Plasma
Blood samples were collected from the abdominal artery of the guinea pig at 1, 2, 4, 6, 10, 16 and 24 hr later. PRP was diluted with PPP and the number of platelet was adjusted to about 60×10^4/μL in the same manner as in the above-mentioned Experimental Example 1(1) (n=3−4).
(3) Measurement of Platelet Aggregation
In the same manner as in the above-mentioned Experimental Example 1(2), the platelet aggregation ability was measured according to the method of Born. PRP (190 μL) was placed in a glass cuvette, mounted on the platelet aggregometer and incubated at 37° C. for 10 min. ADP (10 μL) as platelet aggregation agent was added at 0.5 μmol/L in a final concentration to cause aggregation, and the maximum reaction of the aggregation was measured.
(4) Evaluation of Persistent Inhibitory Action on Platelet Aggregation
The maximum aggregation inhibition ratio of the test substance based on the maximum aggregation inhibition ratio of the control group as 0% was determined from the maximum coagulation ratio of the control group and the maximum coagulation ratio of the test substance when IC50 values were calculated. […] In addition, the assumed time at which the maximum aggregation inhibition ratio became 0% on the graph was determined as the time at which inhibition of aggregation disappeared (inhibition 0 hr).

Row | Structure (SMILES) | Relative activity (%) (rat platelet aggregation) | Relative activity (%) [1] | Relative activity (%) [2] | AUC: 1-inhibition 0 hr [3] | AUC: 6-inhibition 0 hr [3] | Inhibition 0 hr [3] | single oral dose showing the IC50 value [3] | AUC: 1-inhibition 0 hr (% relative to limaprost) [3] | AUC: 6-inhibition 0 hr (% relative to limaprost) [3]
1 | CCC#CC[C@H](C)C(O)/C=C/[C@H]1[C@H](O)CC(=O)[C@@H]1CCSCCCC(=O)OC (mixture of isomers) [compound (1)-1, methyl 4-((2-((1R,2R,3R)-3-hydroxy-2-((1E,3RS,4S)-3-hydroxy-4-methylnon-1-en-6-yn-1-yl)-5-oxocyclopentyl)ethyl)thio)butanoate] | 169% |  |  |  |  |  |  |  | 
2 | CCC#CC[C@H](C)[C@H](O)/C=C/[C@H]1[C@H](O)CC(=O)[C@@H]1CCCCCCC(=O)OCc1oc(=O)oc1C [compound (1)-4, (5-methyl-2-oxo-1,3-dioxol-4-yl)methyl 7-((1R,2R,3R)-3-hydroxy-2-((1E,3S,4S)-3-hydroxy-4-methylnon-1-en-6-yn-1-yl)-5-oxocyclopentyl)heptanoate] |  | 643% | 147% |  |  |  |  |  | 
3 | CCC#CC[C@H](C)[C@H](O)/C=C/[C@H]1[C@H](O)CC(=O)[C@@H]1CCCCCCC(=O)OCC(=O)C(C)(C)C [compound (1)-5, 3,3-dimethyl-2-oxobutyl 7-((1R,2R,3R)-3-hydroxy-2-((1E,3S,4S)-3-hydroxy-4-methylnon-1-en-6-yn-1-yl)-5-oxocyclopentyl) heptanoate] |  | 161% |  |  |  |  |  |  | 
4 | CCC#CC[C@H](C)[C@H](O)/C=C/[C@H]1[C@H](O)CC(=O)[C@@H]1CCCCCCC(=O)O [compound (1)-6, 7-((1R,2R,3R)-3-hydroxy-2-((1E,3S,4S)-3-hydroxy-4-methylnon-1-en-6-yn-1-yl)-5-oxocyclopentyl)heptanoic acid] |  | 923% | 383% |  |  |  |  |  | 
5 | CCC#CC[C@H](C)[C@H](O)/C=C/[C@H]1[C@H](O)CC(=O)[C@@H]1CCCC/C=C/C(=O)O [compound (1)-7, (2E)-7-((1R,2R,3R)-3-hydroxy-2-((1E,3S,4S)-3-hydroxy-4-methylnon-1-en-6-yn-1-yl)-5-oxocyclopentyl)hept-2-enoic acid] |  | 1319% | 375% | 713 %·h | 526 %·h | >24 h | 168 nmol/kg | 202% | 359%
6 | C[C@@H](CC#CC1CC1)[C@H](O)/C=C/[C@H]1[C@H](O)CC(=O)[C@@H]1CCCCCCC(=O)O [compound (1)-9, 7-((1R,2R,3R)-2-((1E,3S,4S)-7-cyclopropyl-3-hydroxy-4-methylhept-1-en-6-yn-1-yl)-3-hydroxy-5-oxocyclopentyl)heptanoic acid] |  | 1200% | 311% | 627 %·h | 401 %·h | 19.7 h | 178 nmol/kg | 178% | 273%
7 | C[C@@H](CC#CC1CC1)[C@H](O)/C=C/[C@H]1[C@H](O)CC(=O)[C@@H]1CCCC/C=C/C(=O)O [compound (1)-10, (2E)-7-((1R,2R,3R)-2-((1E,3S,4S)-7-cyclopropyl-3-hydroxy-4-methylhept-1-en-6-yn-1-yl)-3-hydroxy-5-oxocyclopentyl)hept-2-enoic acid] |  | 1481% | 550% | 719 %·h | 508 %·h | >24 h | 187 nmol/kg | 204% | 346%
8 | CCCC[C@H](C)C[C@H](O)/C=C/[C@H]1[C@H](O)CC(=O)[C@@H]1CCCC/C=C/C(=O)O [limaprost, (2E)-7-((1R,2R,3R)-3-hydroxy-2-((1E,3S,5S)-3-hydroxy-5-methylnon-1-en-1-yl)-5-oxocyclopentyl)hept-2-enoic acid, reference compound] |  | 100% | 100% | 353 %·h | 147 %·h | 12.1 h | 266 nmol/kg | 100% | 100%
